According to patent publication US10464907B2, “Compound having HSP90 inhibitory activity or pharmaceutically acceptable salt thereof, and medical use thereof” (priority 2016, dated 2019):
Read-outs that look alike come from different tables or passages of the source.

Tests used:
HSP90α = HSP90α (Homo sapiens (Human), UniProt P07900); assay: Fluorescence polarization assay, binding ability to HSP90, benzamide compounds; details: GA-FITC 100 nM; read-out: HSP90 FP) (IC50; nM)
Method: 1 M dithiothreitol (DTT), 10 mg/m: BGG (bovine gamma globulin) were added to hexafluorobenzene (HFB) buffer (20 mM HEPES pH 7.3, 50 mM KCl, 5 mM MgCl2, 20 mM Na2MoO4, 0.01% NP4O, 3rd distilled water) and mixed. Then, 100 nM […] (GA)-FITC (Fluorescein isothiocyanate) was added and reacted at room temperature for 10 minutes. Each 100 μL of the mixture was dispensed into the control wells of a 96-well plate, 2 μL of HSP90α was added to the remaining mixture, and each 100 μL of the other wells was dispensed. […] The binding ability of the compound to HSP90 was expressed as mP (millipolarization unit=1000 mP unit).

H1975 cells = assay: MTS cell viability in H1975 cells resistant to Gefitinib; format: cell-based; details: H1975, 3 days
Method: To confirm the cell viability according to the concentration of the compound synthesized in H1975 cells (ATCC) resistant to Gefitinib, MTS [3-(4,5-dimethylthiazol-2-yl)-5-[…]carboxymethoxyphenyl)-2-(4-sulfophenyl)-2H-tetrazolium, inner salt] analysis was performed. When the cells were cultured so as to occupy 80% of the bottom of the culture dish, the cells were detached and diluted with RPMI 1640 medium to a concentration of 1.5×10^3 cells/well. Each 100 μL of the suspension was added to each well of a 96-well plate and cultured for 14 hours. Then, the medium was changed to the culture solution treated with compound of each concentration each concentration (1a-g: 0, 1, 5, 10, 30, 50 or 100 μM, 14a-I, 16a, b, 21a-f: 0, 0.01, 0.1, 1, 5, 10, 30, 50, 70 or 100 μM), and cultured for 3 days. Each 20 μL of the MTS solution was dispensed into each well and reacted for 1 hour at 37° C. in an incubator supplied with 5% CO2.

[1] = test system: HSP90 client proteins (Her2, EGFR, Met, Akt, c-Raf) and HSP70 in H1975 cells; assay: Analysis of protein expression (western blot), Compound 21f; format: cell-based
Method: Compound 21f having good efficacy was selected and HSP90 client protein proliferation effect in the same cell line was confirmed, in which the HSP90 client proteins were Her2 (human EGFR-related 2), EGFR (epidermal growth factor receptor), Met and c-Raf were used.
H1975 cells resistant to Gefitinib were cultured in a medium supplemented with 10% fetal bovine serum (FBS) for 24 hours, and the cells were detached, harvested and diluted with a RPMI 1640 medium so as to be 5×10^5 cells/well. Each 5 mL of the suspension was added to […] culture dish and cultured for 24 hours. Then, the medium was changed to the culture solution treated with each compound of concentration (21f: 0, 0.05, 0.1, 0.5 or 1 μM, GA: 1 μM), and cultured for 24 hours. After culture, the cells were harvested and centrifuged at 1300 rpm for 5 minutes at 4° C., and the supernatant was removed. The pellet was washed with phosphate buffered saline, centrifuged once again under the same conditions, and the supernatant was removed. Lysis buffer was added to the remaining pellet and lysed by vortexing at 5 minute intervals for 30 minutes. The supernatant was separated by centrifugation at 16000 rcf for 4 minutes at 4° C., and proteins were quantified using BCA ([…]) kit. SDS-PAGE (sodium dodecylsulfate-polyacrylamide gel electrophoresis) was performed using 10, 12% running gel and 4% stacking gel (10 mA per gel). The separated proteins were transferred to an immunoblot PVDF membrane (polyvinylidene fluoride membrane) at 100 V for 75 minutes. The membranes were blocked with 5% skim milk solution for 2 hours and then added a primary antibody diluted in the ratio of 1: 750-1,000 in 0.1% tween-20 solution and reacted at 4° C. for 12 hours. After washing three times with TBS-T (Tris-buffered saline and Tween 20 containing Tween 20) and detected with an image analyzer using ECL (enhanced chemiluminescence) solution.

H1975 [2] = assay: H1975 colony formation (clogenic assay); format: cell-based; details: 0.05 μM, 3 weeks, FIG. 3
Method: H1975 cells were treated with Compound 17 at a concentration of 0.05 or 0.5 μM for 3 weeks and then clogenic assay was performed.
First, RPMI1640 medium (10% FBS, 0.48% agar) was added to a 6-well plate and hardened, and then, 10000 cells (H1975) were dispensed in a medium containing RPMI1640 medium (10% FBS, 0.33% agar) and solidified. After solidification, the cells were treated with compound at a concentration of 0.05 or 0.5 μM for 24 hours, followed by culturing for 3 weeks, and then colony formation was confirmed using a crystal violet staining solution.

H1975 [3] = assay: MTS cell proliferation / survival assay; format: cell-based
Method: Sk-Br3 (Korean cell line bank), a breast cancer cell, and H1975 cell (ATCC), a nonsmall cell lung cancer, were cultured in RPMI 1640 containing 25 mM HEPES (4-(2-hydroxyethyl)-1-piperazineethanesulfonic acid) and RPMI 1640 containing L-glutamine (containing streptomycin ([…]), penicillin (100 units/mL) and 10% fetal bovine serum (FBS)).
The cells were cultured under a humidified atmosphere of 37° C. and 5% CO2.
Next, non-metastatic lung cancer cells were treated with Compound 17 and the cell proliferation rate or cell survival rate was measured by MTS [3-(4,5-dimethylthiazol-2-yl)-5-(3-carboxymethoxyphenyl)-2-2H-tetrazolium, inner salt] analysis.
Cells were dispensed in 96-well plates at 3000 cell/well (Sk-Br3) and 2000 cell/well (H1975), and 100 μL of the medium was added per well and then was incubated overnight.
Cell proliferation was evaluated using the Promega Cell Titer 96 Aqueous One Solution cell proliferation assay.
After compound and cell culture, 20 μL of assay substrate solution was added to each well and incubated at 37° C. for an additional 1 hour.
Cell proliferation was confirmed by measuring the absorbance at 490 nm using a microplate reader (Tecan Infinite F200 Proplate reader).

[4] = test system: HSP90 client protein of EGFR, Her2, Met, Akt, c-Raf, Cpk4; assay: Protein expression analysis (western blotting), Compound 17; format: cell-based; details: 24 hours, FIG. 4
Method: Next, the cells were dispensed into 100 mm culture dishes (1×10^6/dish) and adhered to the bottom surface overnight. Compound 17 at a concentration of 0.05, 0.1, 0.5 or 1 μM was added to the cells, followed by further culture for 24 hours.
In addition, cells were treated with DMSO (1%) or geladinamycin (1 μM) as a control and cultured for 24 hours.
The cultured cells were harvested and lysed in ice-cold lysis buffer (23 mM Tris-HCl pH 7.6, 130 mM NaCl, 1% NP40, 1% sodium deoxycholate, 0.1% SDS (sodium dodecylsulfate)), and 30 μg of the lysate was separated by SDS-PAGE (SDS-polyacrylamide gel electrophoresis) and transferred to a PVDF membrane (Bio-Rad).
Membranes were blocked with TBST (Tween 20 containing Tris-Buffered Saline) containing 5% skim milk and incubated with the respective primary antibodies [EGFR (Epidermal growth factor receptor), Her2 (human epidermal growth factor receptor type 2), Met, N-cadherin, E-cadherin, α-tubulin, acetyl-α-tubulin, protein kinase B (Akt), c-Raf, Cdk4 (Cyclin-dependent kinase 4), HSP90, HSP70, PARP (Poly ADT-ribose Polymerase), caspase 3, cleaved caspase 3, truncated caspase 8, B-cell lymphoma 2 (Bcl-2), Bax or β-Actin, purchased from Cell Signaling Technology (USA)].
After binding to a secondary antibody conjugated with horseradish peroxidase, the protein was visualized by ECL (electrochemiluminescence, GE healthcare, USA).

LogP = format: physicochemical; details: called measured values of LogP
Method: All experimental data were analyzed using Prism software (version 5.0, Graphpad Software, San Diego, Calif.). In addition, tPSA (Topological Polar Surface Area) calculated using Chemdraw software and the measured values of LogP are shown in Tables 1 and 2 below.

Row | SMILES | IC50 (HSP90α) [nM] | EC50 (H1975 cells; read-out: H1975 (EC50; μM)) [µM] | EC50 (H1975 cells; read-out: H1975 EC50) [µM] | expression of HSP90 client proteins ([1]; H1975, 0.05-1 μM, 24 hours, FIG. 5) | concentration at which expression of HSP70 was increased ([1]; H1975, 24 hours) [µM] | concentration at which expression was significantly decreased: EGFR ([1]; H1975, 24 hours) [µM] | concentration at which expression was significantly decreased: Her2, Met, and Akt ([1]; H1975, 24 hours) [µM] | colony formation of H1975 (H1975 [2]) | cell death (cell survival) (H1975 [3]; 72 hours, FIG. 2B) | IC50 (H1975 [3]; Homo sapiens, NCI-H1975, read-out: IC50 for H1975) [nM] | inhibition at 10 µM (H1975 [3]; Homo sapiens, NCI-H1975, read-out: Inhibition rate at 10 μM (%)) [%] | inhibition at 30 µM (H1975 [3]; Homo sapiens, NCI-H1975, read-out: Inhibition rate at 30 μM (%)) [%] | proliferation rate of the cells (H1975 [3]; non-small cell lung cancer cells, 1, 2 and 3 days, FIG. 2A) | HSP protein inhibition / degradation of HSP90 client protein ([4]; 0.05-1 μM) | concentration at which most of the client proteins were denatured [4] [nM] | logP (LogP)
1 | CCCNC(=O)c1ccc(CN(C)C(=O)c2cc(C(C)C)c(O)cc2O)cc1 [Compound 21f, 2,4-dihydroxy-5-isopropyl-N-methyl-N-(4-(propylcarbamoyl)benzyl) benzamide] | 5.3 | 0.42 | 0.42 | inhibited in a concentration-dependent manner | 0.5 | 0.1 | 0.5 |  |  |  |  |  |  |  |  | 
2 | CC(C)c1cc(C(=O)N2CCN(C)CC2c2ccccc2)c(O)cc1O (stereo not shown) [Compound 17, (2,4-dihydroxy-5-isopropylphenyl)(4-methyl-2-phenylpiperazin-1-yl)methanone] |  |  |  |  |  |  |  | inhibited | cell death was also observed | 98000 | 72.1 | 77.6 | inhibited in a concentration-dependent manner | inhibited HSP protein in concentration-dependent manner | 500 | 3.8
